The values that follow come from patent US12648965B2, “Use of bovine spleen peptide powder in improving sleep, preventing or treating depression, or improving intestinal function” (BEIJING NO. 1 BIO-TECHNOLOGY DEVELOPMENT CO., LTD., priority 2022, dated 2026).

For test [1], the system named is zebrafish model of insomnia established by PTZ. In words: Evaluation of the efficacy in improving sleep, PTZ zebrafish model of insomnia. It counts as in vivo. As to conditions: 125 μg/mL, 24 h, n = 10. From the text: In the present application, a state in which zebrafish is in a speed of movement of greater than 20 mm/s is considered to be an awake state, a state in which the speed of movement is less than 4 mm/s is considered to be a sleep state, and a state in which the speed of movement is 4-20 mm/s corresponds to sleep latency.
As used herein, the term “amount of wake after sleep onset” refers to the distance of movements during which the speed of movement is greater than 20 mm/s.
As used herein, the term “time of wake after sleep onset” refers to the time of movements during which the speed of movement is greater than 20 mm/s.
The 5 dpf wild type zebrafish of line AB were randomly selected and placed in a 6-well plate, and for the experimental groups 30 zebrafish were treated in each well. The positive control melatonin was in a concentration of 125 μg/mL. Meanwhile, the normal control group (fed in a conventional manner) and the model control group (i.e., the zebrafish model of insomnia established by PTZ) were set, with a capacity of 3 mL per well. […] The zebrafish were analyzed for amount of wake after sleep onset and time of wake after sleep onset. The bovine spleen peptide powder was evaluated for its efficacy in sleep improvement through statistical analysis results of the above indicators. The statistical results were expressed as “mean±standard deviation”.

Test [2] concerns zebrafish model of gastrointestinal mucosal injury (TNBS). In words: Evaluation of regulatory efficacy on intestinal goblet cells, TNBS zebrafish model. It counts as in vivo. As to conditions: 15.0 μg/mL, 2 days after TNBS, n = 10. The procedure:
The 3 dpf wild type zebrafish of line AB were randomly selected and placed in a 6-well plate, and for the experimental groups 30 zebrafish were treated in each well. Except for the normal control group (fed in a conventional manner), all the other experimental groups were given aqueous TNBS to establish a zebrafish model of gastrointestinal mucosal injury. After a 2-day treatment at 28° C., TNBS was removed, and the bovine spleen peptide powder dissolved in water was given at a concentration as shown in Table 9 below. The positive control prednisone was at a concentration of 15.0 μg/mL. Meanwhile, a normal control group and a model control group (i.e., a zebrafish model of gastrointestinal mucosal injury model established by TNBS) were set, with a capacity of 3 mL per well. After a further 2-day treatment at 28° C., 10 zebrafish from each experimental group were randomly selected and placed under the dissecting microscope for photographing. Data were acquired by the NIS-Elements D 3.20 advanced image processing software. The number of goblet cells in the intestine of zebrafish was analyzed. Statistical results were used to evaluate the regulatory efficacy of the goblet cells in the intestine of the zebrafish. The statistical results were expressed as “mean±standard deviation”.

On to `COc1ccc2[nH]cc(CCNC(C)=O)c2c1` [Melatonin, melatonin], for which, in test [1], the “Amount of wake after sleep onset (mean ± standard deviation)” value is 346 ± 35.3 mm and the “Time of wake after sleep onset (mean ± standard deviation)” value was 8.18 ± 0.795 s. Regarding `C[C@]12C=CC(=O)C=C1CC[C@@H]1[C@@H]2C(=O)C[C@@]2(C)[C@H]1CC[C@]2(O)C(=O)CO` [Prednisone, prednisone], the “Number of intestinal goblet cells (mean ± standard deviation)” value in test [2] was 47.2 ± 1.89 count.
